Laboratory results published in patent US6303591A, “21-hydroxy-6,19-oxidoprogesterone (21OH-6OP) and its use as medicament for treating excess of glucocorticoids” (Applied Research Systems ARS Holding NV, priority 1997, dated 2001).

Assays:
MR = details: background; cited from earlier work
[1] = target: T1, uterus PR (progesterone receptor) (Rattus norvegicus, UniProt Q63449); assay: (^3 H)-P4 binding to uterus cytosols (PR); details: uterus cytosol, 12 h at 0° C., 1 μM cortisol
T1 sequence (Q63449 1-923): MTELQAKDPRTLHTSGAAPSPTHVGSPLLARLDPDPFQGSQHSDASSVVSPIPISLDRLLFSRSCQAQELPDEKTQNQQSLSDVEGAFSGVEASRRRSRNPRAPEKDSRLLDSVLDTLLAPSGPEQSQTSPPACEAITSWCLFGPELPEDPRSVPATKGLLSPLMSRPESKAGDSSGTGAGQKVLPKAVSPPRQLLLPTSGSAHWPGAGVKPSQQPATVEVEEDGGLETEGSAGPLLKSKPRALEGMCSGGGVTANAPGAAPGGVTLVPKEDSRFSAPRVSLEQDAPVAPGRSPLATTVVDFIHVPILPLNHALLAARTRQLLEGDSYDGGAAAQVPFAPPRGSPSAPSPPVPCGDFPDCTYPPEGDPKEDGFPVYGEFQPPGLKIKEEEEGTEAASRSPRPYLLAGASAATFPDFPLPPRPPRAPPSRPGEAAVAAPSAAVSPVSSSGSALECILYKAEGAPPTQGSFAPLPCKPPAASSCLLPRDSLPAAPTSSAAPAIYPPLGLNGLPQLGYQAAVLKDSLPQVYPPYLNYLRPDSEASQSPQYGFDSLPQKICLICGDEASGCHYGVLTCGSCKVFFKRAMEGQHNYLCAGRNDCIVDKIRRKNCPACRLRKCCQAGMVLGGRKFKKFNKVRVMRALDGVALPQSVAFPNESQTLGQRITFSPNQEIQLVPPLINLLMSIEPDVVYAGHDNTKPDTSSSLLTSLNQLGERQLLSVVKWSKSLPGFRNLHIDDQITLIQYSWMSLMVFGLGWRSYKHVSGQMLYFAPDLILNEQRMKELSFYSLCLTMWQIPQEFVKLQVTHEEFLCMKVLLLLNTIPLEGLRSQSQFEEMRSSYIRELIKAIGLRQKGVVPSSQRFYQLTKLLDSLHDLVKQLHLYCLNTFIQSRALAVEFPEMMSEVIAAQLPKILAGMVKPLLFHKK
Method: Binding Assay: Adrenalectomized male Sprague-Dawley rats were bled to death by heart puncture. Cold 0.9% NaCI was injected profusely through the aorta until organs were completely blanched. Thymuses were used as a source of GR and kidneys as a source of MR. Homogenization and incubation conditions were performed as previously described, (14) and (15), respectively. Briefly, homogenates performed in cold TEGM buffer at pH 7.4 (0.1 M Tris-HCl, 10 mM EDTA, 10 mM α-mercaptoethanol, 20 mM Na2 MoO4, 25% glycerol, 0.1 mM PMSF, 2.0 TIU/ml aprotinin and 1 mg% Leupeptin) were centrifuged at 37,000 rev. for 30 min at 0° C. Supernatants from this centrifugation are referred to as "cytosol". […] (^3 H)-P4 binding to uterus PR was assayed on immature female rats according to Jordan et al (16).
Relative binding affinity (RBA) for partially purified CBG was determined by steroid competition for (^3 H)-B binding as described previously (14).

GR = details: background; cited from earlier work

Structure (SMILES): CC(=O)[C@H]1CC[C@H]2[C@@H]3CCC4=CC(=O)CC[C@]4(C)[C@H]3CC[C@]12C [P4, progesterone]
- cross-reaction with MR (MR): exhibits cross-reaction with both MR and GR
- displacement of (^3 H)-P4 from uterus receptors / cross-reaction with PR [1]: able to displace the tracer efficiently
- cross-reaction with GR (GR): exhibits cross-reaction with both MR and GR
